Experimental data reported in paper PMC5228208 (MedChemComm, 2016).

Tests used:
HIV RT RNaseH = type: binding, HIV-1; conditions: natural product
HIV = conditions: natural products; reported previously, ref [10a]; cited from earlier work

Row | Compound | HIV RT RNaseH Assays ThermoFluor ΔTm (HIV RT RNaseH) | Cell-Based Assays Antiviral EC50 (HIV)
1 | CC(C)c1ccc(O)c(=O)c(O)c1 [β-thujaplicinol] | 2.34 °C | n.p. (‘n.p.’ indicates no protective effects (<35% cell viability throughout assay))
2 | manicol |  | n.p. (‘n.p.’ indicates no protective effects (<35% cell viability throughout assay))
